Values after ≈ are worked out from the molar mass of the structure shown. Structures can show the parent of a compound that is named as a salt. Numbered stars: 1 amine (or outer) side, 2 acyl side, 3 side chain; on linkers, the order of the positions; unused ones are H or OH. Bridge positions count the residues as written; N and C are the ends. Square brackets hold non-standard residues; d marks the D form. Peptide text beside a SMILES is read from it. I, II: the chains in the order shown. Actinocin(9to1) = Cc1c2oc3c(C)ccc(C(=O)[*:1])c3nc-2c(C(=O)[*:2])c(N)c1=O; NMeV = CN[C@H](C(=O)O)C(C)C; Sar = CNCC(=O)O
What was measured:
[1] = biological target: T1, Pantothenate synthetase (Mycobacterium tuberculosis, UniProt P9WIL5); assay: Inhibition of Mycobacterium tuberculosis pantothenate synthetase by high throughput screening method
T1 sequence (P9WIL5 whole entry): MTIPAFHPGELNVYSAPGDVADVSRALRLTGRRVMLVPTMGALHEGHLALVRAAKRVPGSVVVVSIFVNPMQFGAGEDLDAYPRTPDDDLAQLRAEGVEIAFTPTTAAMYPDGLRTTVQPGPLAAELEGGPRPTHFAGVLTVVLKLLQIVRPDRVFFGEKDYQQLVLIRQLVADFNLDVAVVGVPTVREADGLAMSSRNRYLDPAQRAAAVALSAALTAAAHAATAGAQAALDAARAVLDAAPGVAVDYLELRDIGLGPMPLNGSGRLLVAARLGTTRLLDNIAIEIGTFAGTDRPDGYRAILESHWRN

[2] = system: Mycobacterium tuberculosis; assay: Antimycobacterial activity against Mycobacterium tuberculosis H37Rv; assay type: functional
[3] = biological target: T1, Pantothenate synthetase; assay: Competitive inhibition of Mycobacterium tuberculosis pantothenate synthetase using ATP by Dixon plot analysis
[4] = biological target: T1, Pantothenate synthetase; assay: Competitive inhibition of Mycobacterium tuberculosis pantothenate synthetase using beta-alanine by Dixon plot analysis
[5] = biological target: T2, Pantothenate synthetase (Mycobacterium tuberculosis) (UniProt P9WIL5); assay: Inhibition of Mycobacterium tuberculosis pantothenate synthetase at 50 uM by high throughput screening method relative to control
T2 sequence (whole entry): T1 sequence (P9WIL5 whole entry)

COC(=O)c1cc2c(OCc3ccccc3)cc(N)cc2[nH]1
IC50 [1]: 22.4 µM
MIC [2]: 54 µM (≈ 16 µg/mL)
Ki [3]: 1.4 µM
Ki [4]: 19.7 µM
inhibition [5]: 69.4%

C=C/C=C/C=C/c1cccc(NNC(=O)CCC(=O)O)c1
inhibition [5]: 27.1%

Cc1c2oc3c(C)ccc(C(=O)N[C@@H]4C(=O)N[C@H](C(C)C)C(=O)N5CCC[C@H]5C(=O)N(C)CC(=O)N(C)[C@@H](C(C)C)C(=O)O[C@@H]4C)c3nc-2c(C(=O)N[C@@H]2C(=O)N[C@H](C(C)C)C(=O)N3CCC[C@H]3C(=O)N(C)CC(=O)N(C)[C@@H](C(C)C)C(=O)O[C@@H]2C)c(N)c1=O [DACTINOMYCIN] (I: T[dV]P[Sar][NMeV] / II: T[dV]P[Sar][NMeV]; ester I:1-I:C, II:1-II:C; linker I:N-II:N via Actinocin(9to1))
IC50 [1]: 251 µM

CCN(CC)CCOC(=O)C(Cc1cccc2ccccc12)CC1CCCO1 (stereo not drawn) [NAFRONYL OXALATE]
IC50 [1]: 398 µM

Reference: ChEMBL document CHEMBL1795340, “A discovery of novel Mycobacterium tuberculosis pantothenate synthetase inhibitors based on the molecular mechanism of actinomycin D inhibition” (Bioorg Med Chem Lett, 2011)
